Data from patent publication US20080287375A1, “Selective Glycosidase Inhibitors, Methods of Making Inhibitors, and Uses Thereof” (SIMON FRASER UNIVERSITY, priority 2005, published 2008).

Assays:
[1] = Intravenous glucose tolerance test (IVGTT) in rats; format: in vivo, rat; conditions: 50 mg kg^−1 tail vein
Procedure: Eight give-week old healthy Sprague-Dawley rats (Charles River) were caged in pairs. The animals were allowed to acclimatize to their new surroundings at the Simon Fraser University Animal Care Facilities (SFU ACF) for one week. At 3:00 pm, four rats were given a tail vein injection of 400 μl of inhibitor 9c dissolved in PBS buffer (pH 7.4) at a dose of 50 mg kg^−1. The remaining four rats were given a tail vein injection of 400 μl of PBS as a control. All solutions were pre-sterilized through a 0.2 μm filter (Millipore) and injected with 0.5 mL syringes containing a 28 gauge×0.5″ needle (Terumo) as bolus over 10 seconds. Food was withdrawn at approximately 11:00 pm. At 8:30 am the following morning, the rats were given a second injection. After three hours the rats were anesthetized with isoflurane and a 100 μL blood sample was taken from the jugular vein to measure the fasting blood glucose levels. An intravenous glucose tolerance test (IVGTT) was then performed. A 0.5 mL injection of a 50% w/v solution of glucose dissolved in PBS (pre-sterilized) was administered via the tail vein over 30 seconds. At 10, 20, 30, 40, 60, and 90 minutes after the injection of glucose, a 100 μL sample of blood was taken from the jugular vein. […] The soluble cell extract was then analyzed for levels O-GlcNAc modified proteins using Western blot analysis as described above for the cell studies.

[2] = tested on: O-GlcNAc modified proteins in rat tissues; assay: Oral availability: tissue O-GlcNAc levels in rats fed inhibitor in chow; format: in vivo
Procedure: To determine if the inhibitor 9c is orally available, it was incorporated into the chow (Lab Diet 5001 Rodent Diet, PMI Nutrition International, LLC). To make the rat chow, 600 g of the ground chow was mixed with 355 ml of water and 5 μL of the inhibitor dissolved in ethanol. Small pieces were then prepared with a pasta machine (Pasta Express, Creative) and dehydrated overnight at 37° C. (Snackmaster Dehydrator, American Harvest). Five sets of chow were made with the following amounts of inhibitor: 0 mg kg^−1 days^−1, 100 or 1000 mg kg^−1 days^−1 of the deprotected (polar) inhibitor, and 100 or 1000 mg kg^−1 day^−1 of the protected (non-polar) inhibitor. […] Ten five-week old healthy Sprague-Dawley rats (two per set of food) were then allowed to feed on the rat chow for three days. The animals were then sacrificed and tissues were collected, homogenized, and analyzed as described above.

COS-7 cells = assay: Proliferation rate and morphology of COS-7 cells incubated with inhibitors; format: cell-based; conditions: 50 μM inhibitor
Procedure: COS-7 cells were cultured in DMEM medium (Invitrogen) supplemented with 5-10% FBS (Invitrogen). Aliquots of inhibitors (50 μL of a stock in 95% ethanol) were delivered onto tissue culture plates and the ethanol was evaporated. The cells were incubated at 37° C. for 40 hours at which time they reached approximately 80% confluence. […] COS-7 cells were cultured to 25% confluence in 5% FBS and an aliquot (100 μL) of inhibitor dissolved in media and filter sterilized was added to each plate to yield a final concentration of 50 μM of inhibitor. COS-7 cells (2×10 cm plates) were harvested at the appropriate times by scraping and were pooled by centrifugation (200×g, 10 min). Cells were washed once with PBS, pH 7.0 (10 mL) and pelleted (200×g, 10 min). The cells could be frozen at −80° C. at this point. Control cultures without inhibitors were treated in the same manner.

O-GlcNAcase [3] = target: T1, O-GlcNAcase (Homo sapiens, UniProt O60502); assay: biochemical
T1 sequence (O60502 1-916): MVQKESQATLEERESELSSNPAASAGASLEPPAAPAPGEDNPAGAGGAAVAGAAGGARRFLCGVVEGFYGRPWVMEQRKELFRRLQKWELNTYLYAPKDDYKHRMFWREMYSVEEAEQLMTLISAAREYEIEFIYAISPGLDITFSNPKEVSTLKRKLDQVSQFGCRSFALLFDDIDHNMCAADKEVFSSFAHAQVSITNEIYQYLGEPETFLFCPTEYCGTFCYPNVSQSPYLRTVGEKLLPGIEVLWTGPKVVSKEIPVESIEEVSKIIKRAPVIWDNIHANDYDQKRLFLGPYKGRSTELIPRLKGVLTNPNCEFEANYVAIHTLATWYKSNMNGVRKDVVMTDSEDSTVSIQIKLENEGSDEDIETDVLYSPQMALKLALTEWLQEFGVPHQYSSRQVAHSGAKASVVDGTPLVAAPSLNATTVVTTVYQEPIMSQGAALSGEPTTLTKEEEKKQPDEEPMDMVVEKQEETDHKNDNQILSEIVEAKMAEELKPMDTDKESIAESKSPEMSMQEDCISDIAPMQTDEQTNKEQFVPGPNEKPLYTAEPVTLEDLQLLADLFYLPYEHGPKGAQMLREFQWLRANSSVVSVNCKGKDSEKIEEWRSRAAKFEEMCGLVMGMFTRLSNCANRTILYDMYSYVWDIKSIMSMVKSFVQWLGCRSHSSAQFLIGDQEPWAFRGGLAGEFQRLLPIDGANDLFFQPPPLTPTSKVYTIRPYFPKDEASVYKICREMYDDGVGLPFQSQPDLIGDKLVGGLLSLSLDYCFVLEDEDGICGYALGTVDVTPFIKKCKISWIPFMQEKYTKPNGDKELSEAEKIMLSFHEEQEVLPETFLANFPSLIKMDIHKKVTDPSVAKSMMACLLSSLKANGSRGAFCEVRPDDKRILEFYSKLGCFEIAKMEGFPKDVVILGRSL

O-GlcNAcase [4] = target: T1, O-GlcNAcase
[5] = rats fed inhibitor in food for three days

Ki (O-GlcNAcase [3]): 230 nM
KI for O-GlcNAcase greater than that of parent compound (9a) (O-GlcNAcase [4]): 3 fold
inhibition of O-GlcNAcase, in words (O-GlcNAcase [4]): potent inhibitors
selectivity for O-GlcNAcase over β-hexosaminidase, in words (O-GlcNAcase [4]): remarkable selectivity
selectivity ratio for O-GlcNAcase over β-hexosaminidase (O-GlcNAcase [4]): 1500 fold
Selectivity Ratio (β-Hex KI/O-GlcNAcase KI) (O-GlcNAcase [4]; Table 2): 1500
Compound: CCCC1=N[C@@H]2[C@@H](O)[C@H](O)[C@@H](CO)O[C@@H]2S1 [Compound 9c, 1,2-dideoxy-2′-propyl-α-D-glucopyranoso-[2,1-d]-2′-thiazoline]
levels of O-GlcNAc modified proteins in rats of the IVGTT ([1]; Western blot): increased levels
glucose clearance rate in IVGTT ([1]; short term exposure (<24 hours), 1 g kg^−1 glucose challenge): does not affect the glucose clearance rate
cellular levels of O-GlcNAc modified proteins in brain tissue, oral 100 mg/kg/day ([2]; rats fed inhibitor in chow for three days): marked increases
cellular levels of O-GlcNAc modified proteins in brain tissue, oral 1000 mg/kg/day ([2]; rats fed inhibitor in chow for three days, compared with 100 mg/kg/day): even greater
O-GlcNAc modified proteins in brain, muscle, pancreas, fat and spleen, oral 100 mg kg^−1 day^−1 (FIG. 12 legend) [2, 5]: large increases
O-GlcNAc modified proteins in tissues, oral 1000 mg kg^−1 days^−1 (FIG. 12 legend) [2, 5]: slightly greater increases
proliferation rate or morphology compared to control cells (COS-7 cells): no abnormalities in proliferation rate or morphology
